[invAb] = inverted abasic unit; d = 2'-deoxy (DNA); m = 2'-O-methyl; r = 2'-OH (RNA); f = 2'-fluoro
Key:
CTGF mRNA [1] = assay: CTGF mRNA knockdown (Taqman RT-PCR) after siNA transfection of human NHLF cells; type: cell-based; settings: 10 nM siNA, 24 hrs, average of 3 experiments, vs non-targeting control
Method: NHLF (Normal human lung fibroblasts; Lonza cat# CC-2512): Cells were cultured at 37° C. in the presence of 5% CO2 and grown in Fibroblast Basal Medium (Lonza cat# CC-3132) supplemented with 2% FBS and growth factors (provided with the kit) and 100 μg/mL of streptomycin and 100 U/mL penicillin.
(§1) Cells were plated in all wells of a tissue-culture treated, 96-well plate at a final count of 5000 cells/well in […], of the appropriate culture media. The cells were cultured for 24 hours after plating at 37° C. in the presence of 5% CO2.
(§2) After 24 hours, complexes containing siNA and RNAiMax were created as follows: A solution of RNAiMax diluted 33-fold in OPTI-MEM was prepared. In parallel, solutions of the siNAs for testing were prepared to a final concentration of 120 nM in OPTI-MEM. After incubation of RNAiMax/OPTI-MEM solution at room temperature for 5 min, an equal volume of the siNA solution and the RNAiMax solution were added together for each of the siNAs.
(§3) This solution was incubated at room temperature for 20 minutes. After incubation, 20 uL of the solution was added to each of the relevant wells. The final concentration of siNA in each well was 10 nM and the final volume of RNAiMax in each well was 0.3 ul.
(§4) The time of incubation with the RNAiMax-siNA complexes was 24 hours and there was no change in media between transfection and harvesting, unless otherwise indicated.
(§5) RNA was extracted from a 96-well plate using the TaqMan® Gene Expression Cells-to-CT™ Kit (Cat# 4399002) with a modified protocol. Briefly, a 60 uL (1 plate) or 110 uL (2 plates) of the Lysis Solution with DNase I was dispensed into each well of the Lysis Buffer Plate (twin.tec full skirt plate). The lysis buffer and stop plates were stored at 4° C. until the cells were washed.
(§6) The plate was spun at 1100 rpm for 5 minutes. The culture medium was aspirated and discarded from the wells of the culture plate. The lysis was performed automatically using a BioMek FX instrument and method. After the Biomek method was completed, the lysis plate was incubated for 2 min. at room temperature. The lysis plate can be stored for 2 hours at 4° C., or at −20° C. or −80° C. for two months.
(§7) Each well of the reverse transcription plate required 10 uL of 2× reverse transcriptase Buffer, 1 uL of 20× reverse transcription enzyme and 2 uL of nuclease-free water. The reverse transcription master mix was prepared by mixing 2× reverse transcription buffer, 20× reverse transcription enzyme mix, and nuclease-free water. 13 uL of the reverse transcription master mix was dispensed into each well of the reverse transcription plate (semi-skirted). A separate reverse transcription plate was prepared for each cell plate. The plate was loaded onto a Biomek NX or Biomek FX Dual -96 and the Biomek method was run. The program is programmed to automatically added 7 uL of lysate from the cell lysis procedure described above into each well of the reverse transcription plate. The plate is sealed and spun on a centrifuge (1000 rpm for 30 seconds) to settle the contents to the bottom of the reverse transcription plate. The plate is placed in a thermocycler at 37° C. for 60 min, 95° C. for 5 min, and 4° C. until the plate is removed from the thermocycler. Upon removal, if not used immediately, the plate was frozen at −20° C.
(§8) A series of probes and primers were used to detect the various mRNA transcripts of the genes of β-Actin (human cell line only), and of CTGF and GAPDH in mouse and human cell lines. All Taqman probes and primers for the experiments here-in described were supplied as pre-validated sets by Applied Biosystems, Inc. (see Table 3).
The assays were performed on an ABI 7900 instrument, according to the manufacturer's instructions. A TaqMan Gene Expression Master Mix (provided in the Cells-to-CT™, Applied Biosystems, Cat # 4399002) was used. The PCR reactions were carried out at 50° C. for 2 min, 95° C. for 20 min followed by 40 cycles at 95° C. for 15 secs and 60° C. for 1 min. […]

CTGF mRNA [2] = assay: CTGF mRNA knockdown (Taqman RT-PCR) after siNA transfection of mouse NIH 3T3 cells; type: cell-based; settings: mouse NIH3T3 cells, 10 nM siNA, 24 hrs, average of 3 experiments, vs non-targeting control
Method: NIH 3T3 (mouse; ATCC cat# CRL-1658): Cells were cultured at 37° C. in the presence of 5% CO2 and grown in Dulbecco's modified Eagle's medium (DMEM) with 4 mM L-glutamine adjusted to contain 1.5 g/L sodium bicarbonate and 4.5 g/L glucose and supplemented with fetal bovine serum at a final concentration of 10%, 100 μg/mL of streptomycin, and 100 U/mL penicillin.
as §1, §2, §3, §4, §5, §6, §7, §8
The assays were performed on an ABI 7900 instrument, according to the manufacturer's instructions. A TaqMan Gene Expression Master Mix (provided in the Cells-to-CT™, Applied Biosystems, Cat # 4399002) was used. […]

Substance | % KD Human (CTGF mRNA [1]) | % KD Mouse (CTGF mRNA [2])
48044-DC: siNA duplex; sense SEQ ID NO: 53 B GuGuGcAccGccAAAGAuG TTB; antisense SEQ ID NO: 54 CAUcuuuGGcGGuGcAcAcUU (sense GUGUGCACCGCCAAAGAUGTT; antisense CAUCUUUGGCGGUGCACACUU; sense: DNA at AGT, 2'-fluoro at CU, [invAb] at 5' end, 3' end, backbone not given here; antisense: sugars from the 5' end rrrffffmmfmmfmfmfmfmm, backbone not given here) | −16 ± 8% | −18 ± 5%
48057-DC: siNA duplex; sense SEQ ID NO: 79 B cuAuuuGAAGuGuAAuuGA TTB; antisense SEQ ID NO: 80 UCAAuuAcAcuucAAAuAGUU (sense CUAUUUGAAGUGUAAUUGATT; antisense UCAAUUACACUUCAAAUAGUU; sense: DNA at AGT, 2'-fluoro at CU, [invAb] at 5' end, 3' end, backbone not given here; antisense: sugars from the 5' end rrrmffmfmffffmmmfmmmm, backbone not given here) | 80 ± 5% | 26 ± 5%
48060-DC: siNA duplex; sense SEQ ID NO: 85 B ucuGucAAccucAGAcAcu TTB; antisense SEQ ID NO: 86 AGUGucuGAGGuuGAcAGAUU (sense UCUGUCAACCUCAGACACUTT; antisense AGUGUCUGAGGUUGACAGAUU; sense: DNA at AGT, 2'-fluoro at CU, [invAb] at 5' end, 3' end, backbone not given here; antisense: sugars from the 5' end rrrmfffmmmmffmmfmmmmm, backbone not given here) | 64 ± 8% | 74 ± 3%
48065-DC: siNA duplex; sense SEQ ID NO: 95 B GccuGucAAGuuuGAGcuu TTB; antisense SEQ ID NO: 96 AAGcucAAAcuuGAcAGGcUU (sense GCCUGUCAAGUUUGAGCUUTT; antisense AAGCUCAAACUUGACAGGCUU; sense: DNA at AGT, 2'-fluoro at CU, [invAb] at 5' end, 3' end, backbone not given here; antisense: sugars from the 5' end rrrfffmmmfffmmfmmmfmm, backbone not given here) | 19 ± 6% | 46 ± 7%
48074-DC: siNA duplex; sense SEQ ID NO: 113 B GGAGGAAcuAucccAccAA TTB; antisense SEQ ID NO: 114 UUGGuGGGAuAGuuccuccUU (sense GGAGGAACUAUCCCACCAATT; antisense UUGGUGGGAUAGUUCCUCCUU; sense: DNA at AGT, 2'-fluoro at CU, [invAb] at 5' end, 3' end, backbone not given here; antisense: sugars from the 5' end rrrmfmmmmfmmfffffffmm, backbone not given here) | 3 ± 9% | 21 ± 2%
48043-DC: siNA duplex; sense SEQ ID NO: 51 B GAcAuAccGAGcuAAAuuc TTB; antisense SEQ ID NO: 52 GAAuuuAGcucGGuAuGucUU (sense GACAUACCGAGCUAAAUUCTT; antisense GAAUUUAGCUCGGUAUGUCUU; sense: DNA at AGT, 2'-fluoro at CU, [invAb] at 5' end, 3' end, backbone not given here; antisense: sugars from the 5' end rrrfffmmfffmmfmfmffmm, backbone not given here) | 57 ± 7% | 48 ± 0%
48058-DC: siNA duplex; sense SEQ ID NO: 81 B cAGuGGAAcuAcAuuAGuA TTB; antisense SEQ ID NO: 82 UACuAAuGuAGuuccAcuGUU (sense CAGUGGAACUACAUUAGUATT; antisense UACUAAUGUAGUUCCACUGUU; sense: DNA at AGT, 2'-fluoro at CU, [invAb] at 5' end, 3' end, backbone not given here; antisense: sugars from the 5' end rrrfmmfmfrmffffmffmmm, backbone not given here) | 79 ± 3% | 17 ± 3%
48069-DC: siNA duplex; sense SEQ ID NO: 103 B AGuGcAuccGGAcAccuAA TTB; antisense SEQ ID NO: 104 UUAGGuGuccGGAuGcAcuUU (sense AGUGCAUCCGGACACCUAATT; antisense UUAGGUGUCCGGAUGCACUUU; sense: DNA at AGT, 2'-fluoro at CU, [invAb] at 5' end, 3' end, backbone not given here; antisense: sugars from the 5' end rrrmmfmfffmmmfmfmffmm, backbone not given here) | 45 ± 7% | 55 ± 2%
48041-DC: siNA duplex; sense SEQ ID NO: 47 B GAuucccAcccAAuucAAA TTB; antisense SEQ ID NO: 48 UUUGAAuuGGGuGGGAAucUU (sense GAUUCCCACCCAAUUCAAATT; antisense UUUGAAUUGGGUGGGAAUCUU; sense: DNA at AGT, 2'-fluoro at CU, [invAb] at 5' end, 3' end, backbone not given here; antisense: sugars from the 5' end rrrmmmffmmmfmmmmmffmm, backbone not given here) | 73±4% | 13 ± 3%
48051-DC: siNA duplex; sense SEQ ID NO: 67 B GGGuGuGUGAcGAGcccAA TTB; antisense SEQ ID NO: 68 UUGGGcucGucAcAcAcccUU (sense GGGUGUGUGACGAGCCCAATT; antisense UUGGGCUCGUCACACACCCUU; sense: sugars from the 5' end dddfdfddddfdddfffdddd, [invAb] at 5' end, 3' end, backbone not given here; antisense: sugars from the 5' end rrrmmfffmffmfmfmfffmm, backbone not given here) | 15 ± 10% | 14 ± 11%
48079-DC: siNA duplex; sense SEQ ID NO: 123 B ucAAGAccuGuGccuGccA TTB; antisense SEQ ID NO: 124 UGGcAGGcAcAGGucuuGAUU (sense UCAAGACCUGUGCCUGCCATT; antisense UGGCAGGCACAGGUCUUGAUU; sense: DNA at AGT, 2'-fluoro at CU, [invAb] at 5' end, 3' end, backbone not given here; antisense: sugars from the 5' end rrrfmmmfmfmmmffffmmmm, backbone not given here) | 21 ± 11% | 17 ± 6%

— US20120016011A1, “RNA Interference Mediated Inhibition of Connective Tissue Growth Factor (CTGF) Gene Expression Using Short Interfering Nucleic Acid (siNA)” (Merck Sharp & Dohme Corp., priority 2009, published 2012)
